Patent US20240041042A1, “1-(PYRIDYL)-5-AZINYLPYRAZOLE DERIVATIVES, AND THEIR USE FOR CONTROL OF UNDESIRED PLANT GROWTH” (Bayer Aktiengesellschaft, priority 2020, published 2024)
Where two headings read alike, the source gives them in different places.

Key:
Assay type in all cases: in vivo
[1] = tested on: Alopecurus myosuroides (ALOMY); assay: Pre-emergence herbicidal action against ALOMY; details: scored visually after about 3 weeks, 100% = plants have died
Excerpt: (§1) Seeds of monocotyledonous and dicotyledonous weed plants and crop plants are placed in plastic or organic planting pots and covered with soil. The compounds of the invention, formulated in the form of wettable powders (WP) or as emulsion concentrates (EC), are then applied to the surface of the covering soil as aqueous suspension or emulsion with addition of 0.5% additive at a water application rate equivalent to 600 l/ha. After the treatment, the pots are placed in a greenhouse and kept under good growth conditions for the trial plants. After about 3 weeks, the effect of the preparations is scored visually in comparison with untreated controls as percentages. For example, 100% activity=the plants have died, 0% activity=like control plants.
(§2) Tables A1 to A13 below show the effects of selected compounds of the general formula (I) on various harmful plants and at an application rate corresponding to 320 g/ha or lower, which were obtained by the experimental procedure mentioned above. The appendices “a”, “b” and “c” give differentiation by dosage used with otherwise the same harmful plants tested.

[2] = tested on: Amaranthus retroflexus (AMARE); assay: Pre-emergence herbicidal action against AMARE; details: visual scoring after about 3 weeks vs untreated controls
Excerpt: as §1, §2

Avena fatua (AVEFA) [3] = assay: Pre-emergence herbicidal action against AVEFA; details: visual scoring after about 3 weeks vs untreated controls
Excerpt: as §1, §2

[4] = tested on: Echinochloa crus-galli (ECHCG); assay: Pre-emergence herbicidal action against ECHCG; details: dosage 320 g/ha
Excerpt: as §1, §2

Lolium rigidum (LOLRI) [5] = assay: Pre-emergence herbicidal action against LOLRI
Excerpt: as §1, §2

[6] = tested on: Pharbitis purpurea (PHBPU); assay: Pre-emergence herbicidal action against PHBPU; details: dosage 320 g/ha
Excerpt: as §1, §2

[7] = tested on: Polygonum convolvulus (POLCO); assay: Pre-emergence herbicidal action against POLCO
Excerpt: as §1, §2

Setaria viridis (SETVI) [8] = assay: Pre-emergence herbicidal action against SETVI
Excerpt: as §1, §2

Viola tricolor (VIOTR) [9] = assay: Pre-emergence herbicidal action against VIOTR
Excerpt: as §1, §2

[10] = tested on: Abutilon theophrasti (ABUTH); assay: Post-emergence herbicidal action against ABUTH; details: visual rating about 3 weeks after treatment vs untreated controls (100% = plants have died, 0% = like control plants)
Experimental: (§3) Seeds of monocotyledonous and dicotyledonous weeds and crop plants are placed in sandy loam in plastic or organic planting pots, covered with soil and cultivated in a greenhouse under controlled growth conditions. 2 to 3 weeks after sowing, the test plants are treated at the one-leaf stage. The compounds of the invention, formulated in the form of wettable powders (WP) or as emulsion concentrates (EC), are then sprayed onto the green parts of the plants as aqueous suspension or emulsion with addition of 0.5% additive at a water application rate of 600 l/ha (converted). After the test plants have been kept in the greenhouse under optimum growth conditions for about 3 weeks, the activity of the preparations is rated visually in comparison to untreated controls. For example, 100% activity=the plants have died, 0% activity=like control plants.
(§4) Tables B1 to B13 below show the effects of selected compounds of the general formula (I) according to Table 1 on various harmful plants and at an application rate corresponding to 320 g/ha or lower, which were obtained by the experimental procedure mentioned above. The appendices “a”, “b” and “c” give differentiation by dosage used with otherwise the same harmful plants tested.

[11] = tested on: Alopecurus myosuroides (ALOMY); assay: Post-emergence herbicidal action against ALOMY; details: visual rating about 3 weeks after treatment vs untreated controls (100% = plants have died, 0% = like control plants)
Experimental: as §3, §4

[12] = tested on: Amaranthus retroflexus (AMARE); assay: Post-emergence herbicidal action against AMARE
Experimental: as §3, §4

Avena fatua (AVEFA) [13] = assay: Post-emergence herbicidal action against AVEFA; details: visual rating about 3 weeks after treatment
Experimental: as §3, §4

[14] = tested on: Echinochloa crus-galli (ECHCG); assay: Post-emergence herbicidal action against ECHCG
Experimental: as §3, §4

Lolium rigidum (LOLRI) [15] = assay: Post-emergence herbicidal action against LOLRI
Experimental: as §3, §4

[16] = tested on: Polygonum convolvulus (POLCO); assay: Post-emergence herbicidal action against POLCO
Experimental: as §3, §4

Setaria viridis (SETVI) [17] = assay: Post-emergence herbicidal action against SETVI
Experimental: as §3, §4

[18] = tested on: Verconica persica (VERPE); assay: Post-emergence herbicidal action against VERPE
Experimental: as §3, §4

Viola tricolor (VIOTR) [19] = assay: Post-emergence herbicidal action against VIOTR
Experimental: as §3, §4

Oryza sativa (ORYSA) = details: crop plant compatibility
Experimental: as §3
(§5) The observed effects on selected crop plants are reported here in comparison to the untreated controls (values in %). The appendices “a”, “b” and “c” give differentiation by dosage used with otherwise the same crop plants tested.

Zea mays (ZEAMX) = details: for Post-emergence action against ZEAMX in %: crop plant compatibility, 80 g/ha, effect vs untreated controls; for Post-emergence action against ZEAMX in % (crop plant compatibility): 20 g/ha, effect in comparison to untreated controls
Experimental: as §3, §5

[20] = tested on: Verconica persica (VERPE); assay: Pre-emergence herbicidal action against VERPE
Excerpt: as §1, §2

[21] = tested on: Matricaria inodora (MATIN); assay: Pre-emergence herbicidal action against MATIN; details: dosage 320 g/ha
Excerpt: as §1, §2

[22] = tested on: Pharbitis purpurea (PHBPU); assay: Post-emergence herbicidal action against PHBPU
Experimental: as §3, §4

[23] = 320 g/ha, visual rating about 3 weeks after treatment
[24] = 80 g/ha, effect in comparison to untreated controls
[25] = 320 g/ha, effect in comparison to untreated controls
[26] = 80 g/ha, visual rating about 3 weeks after treatment vs untreated controls (100% = plants have died, 0% = like control plants)
[27] = 20 g/ha, effect vs untreated controls

SMILES | Pre-emergence action against ALOMY ([1]; 80 g/ha) | Pre-emergence action against ALOMY ([1]; 320 g/ha) | Pre-emergence action against AMARE in % ([2]; 80 g/ha) | Pre-emergence action against AMARE in % ([2]; 320 g/ha) | Pre-emergence action against AVEFA in % (Avena fatua (AVEFA) [3]; 320 g/ha) | Pre-emergence action against ECHCG in % [4] | Pre-emergence action against LOLRI in % (Lolium rigidum (LOLRI) [5]; dosage 80 g/ha) | Pre-emergence action against LOLRI in % (Lolium rigidum (LOLRI) [5]; dosage 320 g/ha) | Pre-emergence action against PHBPU in % [6] | Pre-emergence action against POLCO in % ([7]; dosage 320 g/ha) | Pre-emergence action against SETVI in % (Setaria viridis (SETVI) [8]; dosage 320 g/ha) | Pre-emergence action against VIOTR in % (Viola tricolor (VIOTR) [9]; 320 g/ha, Viola tricolor) | Pre-emergence action against VIOTR in % (Viola tricolor (VIOTR) [9]; dosage 80 g/ha) | Post-emergence action against ALOMY in % ([11]; 80 g/ha) | Post-emergence action against AVEFA in % (Avena fatua (AVEFA) [13]; 80 g/ha) | Post-emergence action against LOLRI in % (Lolium rigidum (LOLRI) [15]; dosage 80 g/ha) | Post-emergence action against ORYSA in % (Oryza sativa (ORYSA); [24]) | Post-emergence action against ZEAMX in % (Zea mays (ZEAMX)) | Pre-emergence action against SETVI in % (Setaria viridis (SETVI) [8]; dosage 80 g/ha) | Pre-emergence action against VERPE in % ([20]; dosage 320 g/ha) | further results
COC(=O)C(C)NC(=O)[C@@H](C)Oc1nn(-c2ccccn2)c(-c2ccc(F)nc2)c1Cl (stereo partly shown) [Example I-358] | 80% | 100% | 80% | 100% | 80% | 100% | 100% | 100% | 80% | 90% | 100% | 100% | 80% | 90% | 90% | 90% | 0% | 0% |  |  | Pre-emergence action against POLCO in % ([7]; dosage 80 g/ha): 80%; Post-emergence action against ABUTH in % ([10]; 320 g/ha): 80%; Post-emergence action against ALOMY in % ([11]; 320 g/ha): 90%; Post-emergence action against AMARE in % [12, 23]: 90%; Post-emergence action against AVEFA in % (Avena fatua (AVEFA) [13]; 320 g/ha): 90%; Post-emergence action against ECHCG in % ([14]; dosage 320 g/ha): 90%; Post-emergence action against LOLRI in % (Lolium rigidum (LOLRI) [15]; dosage 320 g/ha): 90%; Post-emergence action against POLCO in % ([16]; dosage 80 g/ha): 90%; Post-emergence action against POLCO in % ([16]; dosage 320 g/ha): 90%; Post-emergence action against SETVI in % (Setaria viridis (SETVI) [17]; dosage 320 g/ha): 90%; Post-emergence action against VERPE in % ([18]; 320 g/ha, VERPE): 80%; Post-emergence action against VIOTR in % (Viola tricolor (VIOTR) [19]; 80 g/ha): 90%; Post-emergence action against VIOTR in % (Viola tricolor (VIOTR) [19]; 320 g/ha): 90%; Post-emergence action against ORYSA in % (Oryza sativa (ORYSA); [25]): 0%
CCOC(=O)C(C)Oc1nn(-c2ccccn2)c(-c2ccc(F)nc2)c1Br (stereo not shown) [Example I-102] | 100% | 100% | 80% | 90% | 90% |  | 80% | 100% | 80% | 90% | 100% | 100% | 90% | 90% | 90% | 90% | 0% | 20% | 90% | 80% | Post-emergence action against ABUTH in % ([10]; 80 g/ha): 80%; Post-emergence action against AMARE in % [12, 26]: 80%; Post-emergence action against POLCO in % ([16]; dosage 80 g/ha): 90%; Post-emergence action against ORYSA in % (Oryza sativa (ORYSA); [27]): 0%; Post-emergence action against ZEAMX in % (crop plant compatibility) (Zea mays (ZEAMX)): 0%
O=C(O)COc1nn(-c2ncccc2F)c(-c2ccc(F)nc2)c1C1CC1 [Example I-43] | 100% | 100% | 80% | 90% | 100% | 100% | 90% | 100% | 80% | 80% | 100% | 100% | 100% | 90% | 90% |  |  | 10% | 100% | 90% | Pre-emergence action against MATIN in % [21]: 80%; Post-emergence action against AMARE in % [12, 26]: 80%; Post-emergence action against ECHCG in % ([14]; dosage 80 g/ha): 90%; Post-emergence action against SETVI in % (Setaria viridis (SETVI) [17]; dosage 80 g/ha): 90%; Post-emergence action against ORYSA in % (Oryza sativa (ORYSA); [27]): 10%; Post-emergence action against ZEAMX in % (crop plant compatibility) (Zea mays (ZEAMX)): 10%
C[C@H](NC(=O)COc1nn(-c2ccccn2)c(-c2cncc(F)c2)c1Br)C(=O)O [Example I-80] | 100% | 100% | 90% | 90% | 90% | 100% |  | 100% | 90% | 90% | 100% | 90% |  |  | 80% |  | 20% | 20% | 90% | 90% | Pre-emergence action against MATIN in % [21]: 90%; Post-emergence action against ALOMY in % ([11]; 320 g/ha): 90%; Post-emergence action against AMARE in % [12, 26]: 80%; Post-emergence action against AMARE in % [12, 23]: 80%; Post-emergence action against AVEFA in % (Avena fatua (AVEFA) [13]; 320 g/ha): 80%; Post-emergence action against ECHCG in % ([14]; dosage 80 g/ha): 80%; Post-emergence action against ECHCG in % ([14]; dosage 320 g/ha): 80%; Post-emergence action against PHBPU in % ([22]; dosage 80 g/ha): 80%; Post-emergence action against PHBPU in % ([22]; dosage 320 g/ha): 80%; Post-emergence action against POLCO in % ([16]; dosage 80 g/ha): 80%; Post-emergence action against POLCO in % ([16]; dosage 320 g/ha): 80%; Post-emergence action against SETVI in % (Setaria viridis (SETVI) [17]; dosage 320 g/ha): 80%; Post-emergence action against VERPE in % ([18]; 320 g/ha, VERPE): 80%; Post-emergence action against ORYSA in % (Oryza sativa (ORYSA); [25]): 20%
CCOC(=O)[C@@H](C)Oc1nn(-c2ncccc2F)c(-c2ccc(F)nc2)c1Cl [Example I-32] | 90% | 100% | 90% | 100% | 100% | 100% | 90% | 100% | 80% | 90% | 100% | 100% | 100% | 90% | 90% | 90% | 0% |  | 100% | 100% | Pre-emergence action against AVEFA in % (Avena fatua (AVEFA) [3]; 80 g/ha): 90%; Pre-emergence action against MATIN in % [21]: 90%; Pre-emergence action against POLCO in % ([7]; dosage 80 g/ha): 90%; Pre-emergence action against VERPE in % ([20]; dosage 80 g/ha): 80%; Post-emergence action against ECHCG in % ([14]; dosage 80 g/ha): 80%; Post-emergence action against PHBPU in % ([22]; dosage 80 g/ha): 80%; Post-emergence action against VERPE in % ([18]; dosage 80 g/ha): 80%; Post-emergence action against VIOTR in % (Viola tricolor (VIOTR) [19]; 80 g/ha): 80%; Post-emergence action against ORYSA in % (Oryza sativa (ORYSA); [27]): 0%; Post-emergence action against ZEAMX in % (crop plant compatibility) (Zea mays (ZEAMX)): 20%
